Assays:
Acetylcholinesterase = Acetylcholinesterase (Homo sapiens, UniProt P22303); format: functional
Estrogen receptor = target: T1, Estrogen receptor (Homo sapiens, UniProt P03372)
T1 sequence (P03372 whole entry): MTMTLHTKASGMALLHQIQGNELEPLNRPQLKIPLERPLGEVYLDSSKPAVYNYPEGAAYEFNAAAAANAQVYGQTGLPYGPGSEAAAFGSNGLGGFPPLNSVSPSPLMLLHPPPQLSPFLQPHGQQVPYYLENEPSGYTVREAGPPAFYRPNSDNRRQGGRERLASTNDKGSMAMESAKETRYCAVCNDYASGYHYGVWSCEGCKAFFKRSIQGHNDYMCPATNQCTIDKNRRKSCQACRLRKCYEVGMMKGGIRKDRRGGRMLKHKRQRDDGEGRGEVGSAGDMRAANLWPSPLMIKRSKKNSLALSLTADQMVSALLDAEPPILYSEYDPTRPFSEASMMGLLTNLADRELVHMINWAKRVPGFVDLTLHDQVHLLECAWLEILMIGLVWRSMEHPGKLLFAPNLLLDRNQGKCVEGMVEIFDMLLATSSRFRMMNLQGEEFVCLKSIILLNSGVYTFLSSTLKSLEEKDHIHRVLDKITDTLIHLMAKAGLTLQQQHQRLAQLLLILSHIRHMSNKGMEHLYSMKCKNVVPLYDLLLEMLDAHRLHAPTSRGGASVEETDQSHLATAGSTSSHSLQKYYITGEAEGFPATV

[1] = target: 5-hydroxytryptamine receptor 2B (Homo sapiens, UniProt P41595); format: functional, cell-based
Chain of 5-hydroxytryptamine receptor 2B (P41595 whole entry): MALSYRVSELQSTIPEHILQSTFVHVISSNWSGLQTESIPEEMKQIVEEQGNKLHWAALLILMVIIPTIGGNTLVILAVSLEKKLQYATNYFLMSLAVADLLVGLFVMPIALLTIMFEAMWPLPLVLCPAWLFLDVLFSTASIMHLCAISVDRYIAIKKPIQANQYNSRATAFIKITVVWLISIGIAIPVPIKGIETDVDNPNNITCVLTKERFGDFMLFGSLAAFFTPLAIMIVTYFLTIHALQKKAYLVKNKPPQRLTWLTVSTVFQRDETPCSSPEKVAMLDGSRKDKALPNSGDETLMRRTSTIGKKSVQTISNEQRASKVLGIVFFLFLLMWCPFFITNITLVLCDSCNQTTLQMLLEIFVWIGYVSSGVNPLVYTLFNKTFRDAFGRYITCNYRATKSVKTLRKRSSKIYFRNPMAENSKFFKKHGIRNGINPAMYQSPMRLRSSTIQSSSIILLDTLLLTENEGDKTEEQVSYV

[2] = target: Prostaglandin G/H synthase 1 (Homo sapiens, UniProt P23219); format: functional
Chain of Prostaglandin G/H synthase 1 (P23219 whole entry): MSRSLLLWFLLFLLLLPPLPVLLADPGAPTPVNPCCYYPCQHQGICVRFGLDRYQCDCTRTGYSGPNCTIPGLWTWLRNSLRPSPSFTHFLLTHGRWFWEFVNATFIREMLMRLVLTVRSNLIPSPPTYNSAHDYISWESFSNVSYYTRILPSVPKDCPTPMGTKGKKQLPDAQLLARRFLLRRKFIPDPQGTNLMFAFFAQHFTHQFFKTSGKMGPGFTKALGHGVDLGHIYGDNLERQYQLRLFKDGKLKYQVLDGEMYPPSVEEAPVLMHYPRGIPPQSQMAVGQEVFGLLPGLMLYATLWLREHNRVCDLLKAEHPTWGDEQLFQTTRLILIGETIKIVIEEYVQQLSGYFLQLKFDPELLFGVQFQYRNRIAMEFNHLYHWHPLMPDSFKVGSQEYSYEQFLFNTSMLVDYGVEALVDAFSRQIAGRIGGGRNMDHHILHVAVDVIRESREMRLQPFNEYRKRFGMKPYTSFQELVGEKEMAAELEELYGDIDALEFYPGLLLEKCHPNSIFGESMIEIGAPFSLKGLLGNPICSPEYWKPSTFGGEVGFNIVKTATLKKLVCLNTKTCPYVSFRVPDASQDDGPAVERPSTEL

[3] = target: Sodium-dependent dopamine transporter (Homo sapiens, UniProt Q01959)
Chain of Sodium-dependent dopamine transporter (Q01959 whole entry): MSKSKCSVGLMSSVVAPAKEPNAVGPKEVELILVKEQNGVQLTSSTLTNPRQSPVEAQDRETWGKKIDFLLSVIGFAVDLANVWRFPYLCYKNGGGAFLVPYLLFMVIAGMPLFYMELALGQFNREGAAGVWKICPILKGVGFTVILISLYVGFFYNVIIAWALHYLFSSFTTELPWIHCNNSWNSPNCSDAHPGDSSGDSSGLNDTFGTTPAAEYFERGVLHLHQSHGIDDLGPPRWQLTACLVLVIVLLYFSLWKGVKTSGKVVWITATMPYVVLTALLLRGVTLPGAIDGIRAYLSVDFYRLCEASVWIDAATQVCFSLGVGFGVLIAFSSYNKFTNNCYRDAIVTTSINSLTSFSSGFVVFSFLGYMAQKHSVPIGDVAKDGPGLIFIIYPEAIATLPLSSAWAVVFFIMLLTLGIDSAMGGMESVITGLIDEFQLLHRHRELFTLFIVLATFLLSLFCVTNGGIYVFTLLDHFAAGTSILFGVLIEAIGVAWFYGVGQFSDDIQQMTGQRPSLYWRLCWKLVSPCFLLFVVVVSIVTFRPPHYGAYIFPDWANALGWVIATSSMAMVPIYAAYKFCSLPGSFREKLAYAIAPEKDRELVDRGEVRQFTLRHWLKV

Thromboxane A2 receptor = target: T2, Thromboxane A2 receptor (Homo sapiens, UniProt P21731); format: functional, cell-based
T2 sequence (P21731 whole entry): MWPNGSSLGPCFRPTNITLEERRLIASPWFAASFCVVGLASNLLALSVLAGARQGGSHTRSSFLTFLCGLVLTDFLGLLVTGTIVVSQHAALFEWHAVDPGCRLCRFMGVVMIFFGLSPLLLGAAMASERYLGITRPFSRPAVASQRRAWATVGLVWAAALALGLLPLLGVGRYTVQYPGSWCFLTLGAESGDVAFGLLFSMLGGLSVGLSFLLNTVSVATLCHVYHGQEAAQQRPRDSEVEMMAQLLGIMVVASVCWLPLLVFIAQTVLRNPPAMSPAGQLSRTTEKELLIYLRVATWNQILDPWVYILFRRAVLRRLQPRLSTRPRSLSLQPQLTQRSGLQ

Progesterone receptor = target: T3, Progesterone receptor (Homo sapiens, UniProt P06401); format: functional
T3 sequence (P06401 whole entry): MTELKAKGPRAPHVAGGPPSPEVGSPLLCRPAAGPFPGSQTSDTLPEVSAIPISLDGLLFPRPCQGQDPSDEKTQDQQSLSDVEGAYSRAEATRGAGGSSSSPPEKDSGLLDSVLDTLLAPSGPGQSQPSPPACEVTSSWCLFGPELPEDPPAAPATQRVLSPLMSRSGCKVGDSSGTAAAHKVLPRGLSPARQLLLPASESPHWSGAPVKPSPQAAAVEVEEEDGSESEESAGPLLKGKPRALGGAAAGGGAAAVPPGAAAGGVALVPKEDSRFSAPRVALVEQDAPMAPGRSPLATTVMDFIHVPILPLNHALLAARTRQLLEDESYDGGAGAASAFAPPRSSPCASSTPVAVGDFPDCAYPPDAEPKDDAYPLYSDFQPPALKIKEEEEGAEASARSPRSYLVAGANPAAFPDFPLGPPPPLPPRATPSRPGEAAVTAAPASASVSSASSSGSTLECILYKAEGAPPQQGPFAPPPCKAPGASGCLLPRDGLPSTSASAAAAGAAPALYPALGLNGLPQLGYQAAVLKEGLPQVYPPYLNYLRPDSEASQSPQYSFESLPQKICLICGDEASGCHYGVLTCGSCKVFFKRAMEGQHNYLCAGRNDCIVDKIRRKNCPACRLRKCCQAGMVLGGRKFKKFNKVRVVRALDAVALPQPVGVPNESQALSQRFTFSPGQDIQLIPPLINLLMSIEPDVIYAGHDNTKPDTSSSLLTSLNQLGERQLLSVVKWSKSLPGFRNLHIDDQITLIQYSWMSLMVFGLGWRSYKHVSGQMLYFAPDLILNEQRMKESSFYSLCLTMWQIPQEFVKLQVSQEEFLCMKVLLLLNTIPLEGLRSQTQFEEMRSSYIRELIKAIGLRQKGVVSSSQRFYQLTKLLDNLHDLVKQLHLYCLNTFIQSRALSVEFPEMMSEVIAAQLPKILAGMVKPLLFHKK

[4] = target: T4, Alpha-1A adrenergic receptor (Homo sapiens, UniProt P35348); format: functional, cell-based
T4 sequence (P35348 whole entry): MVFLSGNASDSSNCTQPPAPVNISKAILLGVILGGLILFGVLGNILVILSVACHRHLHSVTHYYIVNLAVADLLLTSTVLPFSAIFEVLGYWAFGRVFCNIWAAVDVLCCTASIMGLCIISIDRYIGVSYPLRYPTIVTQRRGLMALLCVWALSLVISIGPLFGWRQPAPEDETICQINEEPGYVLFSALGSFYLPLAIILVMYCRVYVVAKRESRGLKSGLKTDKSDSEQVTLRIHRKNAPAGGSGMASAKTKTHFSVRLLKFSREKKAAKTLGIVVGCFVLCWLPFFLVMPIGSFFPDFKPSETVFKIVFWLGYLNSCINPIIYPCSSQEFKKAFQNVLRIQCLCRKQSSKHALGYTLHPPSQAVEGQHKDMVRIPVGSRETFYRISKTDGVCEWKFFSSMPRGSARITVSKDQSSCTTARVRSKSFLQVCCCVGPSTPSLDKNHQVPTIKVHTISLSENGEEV

Cannabinoid receptor 1 = Cannabinoid receptor 1 (Homo sapiens, UniProt P21554); format: functional, cell-based
Chain of Cannabinoid receptor 1 (P21554 whole entry): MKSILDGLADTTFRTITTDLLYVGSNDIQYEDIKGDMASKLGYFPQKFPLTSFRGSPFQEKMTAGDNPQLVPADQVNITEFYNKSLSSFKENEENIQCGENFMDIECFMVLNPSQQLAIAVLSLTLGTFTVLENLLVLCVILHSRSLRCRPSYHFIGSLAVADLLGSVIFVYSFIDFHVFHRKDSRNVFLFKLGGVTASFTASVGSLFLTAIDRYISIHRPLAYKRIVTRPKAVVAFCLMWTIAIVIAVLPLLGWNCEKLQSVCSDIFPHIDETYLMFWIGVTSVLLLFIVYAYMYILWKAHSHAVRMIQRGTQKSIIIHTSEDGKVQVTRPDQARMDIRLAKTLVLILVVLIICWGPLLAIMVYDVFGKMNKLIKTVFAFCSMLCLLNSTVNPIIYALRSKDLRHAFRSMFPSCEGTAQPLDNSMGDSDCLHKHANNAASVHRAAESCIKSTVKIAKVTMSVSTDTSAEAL

Histamine H2 receptor = Histamine H2 receptor (Homo sapiens, UniProt P25021); format: functional, cell-based
Chain of Histamine H2 receptor (P25021 whole entry): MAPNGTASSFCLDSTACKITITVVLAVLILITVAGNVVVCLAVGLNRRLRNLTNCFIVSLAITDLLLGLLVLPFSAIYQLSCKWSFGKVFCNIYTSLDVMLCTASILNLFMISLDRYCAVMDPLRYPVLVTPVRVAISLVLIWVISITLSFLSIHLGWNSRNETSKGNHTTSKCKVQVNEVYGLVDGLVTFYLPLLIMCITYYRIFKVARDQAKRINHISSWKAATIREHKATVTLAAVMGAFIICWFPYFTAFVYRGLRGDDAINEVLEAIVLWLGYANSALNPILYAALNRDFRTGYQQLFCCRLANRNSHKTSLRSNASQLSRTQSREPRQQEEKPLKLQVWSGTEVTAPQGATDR

Histamine H3 receptor = Histamine H3 receptor (Homo sapiens, UniProt Q9Y5N1)
Chain of Histamine H3 receptor (Q9Y5N1 whole entry): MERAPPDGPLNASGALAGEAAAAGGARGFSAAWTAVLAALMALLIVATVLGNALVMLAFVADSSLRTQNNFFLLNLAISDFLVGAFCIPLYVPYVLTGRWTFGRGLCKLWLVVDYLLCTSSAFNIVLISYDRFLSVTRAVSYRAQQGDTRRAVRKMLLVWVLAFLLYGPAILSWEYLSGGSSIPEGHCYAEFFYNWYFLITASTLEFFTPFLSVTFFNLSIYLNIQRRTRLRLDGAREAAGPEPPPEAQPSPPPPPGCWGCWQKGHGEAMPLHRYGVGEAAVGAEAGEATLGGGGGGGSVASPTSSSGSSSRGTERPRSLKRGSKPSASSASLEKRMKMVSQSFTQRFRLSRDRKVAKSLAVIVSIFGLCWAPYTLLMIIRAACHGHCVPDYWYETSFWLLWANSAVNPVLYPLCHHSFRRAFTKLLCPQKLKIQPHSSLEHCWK
Also: assay procedure not described here.

Chain of Acetylcholinesterase (P22303 whole entry): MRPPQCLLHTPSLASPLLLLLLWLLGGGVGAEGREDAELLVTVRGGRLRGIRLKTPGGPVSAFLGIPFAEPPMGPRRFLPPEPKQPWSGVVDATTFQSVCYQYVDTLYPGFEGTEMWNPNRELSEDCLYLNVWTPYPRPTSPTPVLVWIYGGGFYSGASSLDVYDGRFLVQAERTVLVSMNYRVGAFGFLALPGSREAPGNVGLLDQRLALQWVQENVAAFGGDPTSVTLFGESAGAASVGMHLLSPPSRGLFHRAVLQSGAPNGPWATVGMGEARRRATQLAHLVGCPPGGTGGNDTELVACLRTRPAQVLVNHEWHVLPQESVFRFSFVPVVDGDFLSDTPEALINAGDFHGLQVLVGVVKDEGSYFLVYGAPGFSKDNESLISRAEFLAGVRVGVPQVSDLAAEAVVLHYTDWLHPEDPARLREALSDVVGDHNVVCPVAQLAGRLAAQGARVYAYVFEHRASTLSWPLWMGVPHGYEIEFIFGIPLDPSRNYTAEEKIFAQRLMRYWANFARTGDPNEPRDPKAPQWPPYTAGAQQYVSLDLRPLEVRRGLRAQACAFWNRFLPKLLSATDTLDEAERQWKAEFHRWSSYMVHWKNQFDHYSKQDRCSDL

Row | SMILES | AC50 (Acetylcholinesterase) [µM] | AC50 (Estrogen receptor) [µM] | AC50 [1] [µM] | AC50 [2] [µM] | AC50 [3] [µM] | AC50 (Thromboxane A2 receptor) [µM] | AC50 (Progesterone receptor) [µM] | AC50 [4] [µM] | AC50 (Cannabinoid receptor 1) [µM] | AC50 (Histamine H2 receptor) [µM] | AC50 (Histamine H3 receptor) [µM]
1 | CCc1oc2ccccc2c1C(=O)c1cc(I)c(O)c(I)c1 [BENZIODARONE] | > 30 | > 30 | > 30 | 29.8 | 9.96 | 29 |  |  |  |  | 
2 | COCc1c(C(C)C)nc(C(C)C)c(/C=C/[C@@H](O)C[C@@H](O)CC(=O)O)c1-c1ccc(F)cc1 [CERIVASTATIN] | > 30 | 23.3 | > 30 | > 30 | > 30 | > 30 |  |  |  |  | 
3 | Oc1c(Cl)cc(Cl)c2cccnc12 [CHLOROXINE] | > 30 | > 30 | > 30 | > 30 | > 30 | > 30 |  |  |  |  | 
4 | C[N+](C)(C)CCO [CHOLINE] | > 30 | > 30 | > 30 | > 30 | > 30 | > 30 |  |  |  |  | 
5 | CN(C)[C@@H](c1cccc(O)c1)[C@H]1CCCC[C@H]1O [CIRAMADOL] | > 30 | > 30 | > 30 | > 10 | 29.6 | > 30 |  |  |  |  | 
6 | CN(C)CC(c1ccc(O)cc1)C1(O)CCCCC1 (stereo not drawn) [DESVENLAFAXINE] | > 30 | > 30 | > 30 | > 30 |  | > 30 |  |  |  |  | 
7 | CN(C)CCN1C(=O)c2ccccc2N(C)c2ccccc21 [DIBENZEPIN] | > 30 | > 30 | > 30 | > 30 | > 30 | > 30 |  |  |  |  | 
8 | N[C@H](C(=O)O)[C@H](O)c1ccc(O)c(O)c1 [DROXIDOPA] | > 30 | > 30 | > 30 | 17.8 | > 30 | > 30 |  |  |  |  | 
9 | Cc1cc(C#N)cc(C)c1Oc1nc(Nc2ccc(C#N)cc2)nc(N)c1Br [ETRAVIRINE] | > 30 | 6.28 | > 30 | 14.4 | > 10 | > 10 |  |  |  |  | 
10 | O=C(O)c1cc(O)ccc1O [GENTISIC ACID] | > 30 | > 30 | > 30 | > 30 | > 30 | > 30 |  |  |  |  | 
11 | CCC1=C(C)CN(C(=O)NCCc2ccc(S(=O)(=O)NC(=O)N[C@H]3CC[C@H](C)CC3)cc2)C1=O [GLIMEPIRIDE] | > 30 | > 30 | > 30 | > 30 | > 30 | > 30 |  |  |  |  | 
12 | C[N+]1(C)CCC(OC(=O)C(O)(c2ccccc2)C2CCCC2)C1 (stereo not drawn) [GLYCOPYRRONIUM BROMIDE] |  | > 30 |  |  |  | > 30 | > 10 |  |  |  | 
13 | CC(C)Nc1ncccn1 [ISAXONINE] | > 30 | > 30 | > 30 | > 30 | > 30 | > 30 |  |  |  |  | 
14 | N[C@@H](C(=O)N[C@@H]1C(=O)N2C(C(=O)O)=C(Cl)CC[C@H]12)c1ccccc1 [LORACARBEF ANHYDROUS] | > 30 | > 30 | > 30 | > 30 | > 30 | > 30 |  |  |  |  | 
15 | OCCN1C[C@H](O)[C@@H](O)[C@H](O)[C@H]1CO [MIGLITOL] | > 30 | > 30 | > 30 | > 30 | > 30 | > 30 |  |  |  |  | 
16 | CC(=O)N[C@@H]1[C@@H](O)[C@H](O)[C@@H](CO)O[C@H]1O [N-ACETYLGLUCOSAMINE] | > 30 | > 30 | > 30 | > 30 | > 30 | > 30 |  |  |  |  | 
17 | O=C(CCNNC(=O)c1ccncc1)NCc1ccccc1 [NIALAMIDE] | > 30 | > 30 | > 30 | 1.65 | > 30 | > 30 |  |  |  |  | 
18 | CC[C@H]1[C@@H](O)[C@@H]2[C@H](CC[C@]3(C)[C@@H]([C@H](C)CCC(=O)O)CC[C@@H]23)[C@@]2(C)CC[C@@H](O)C[C@@H]12 [OBETICHOLIC ACID] | > 30 | > 30 | > 30 | > 30 | > 30 | > 30 | > 30 | > 30 | > 30 | > 30 | > 30
19 | CC[N+]1(C)[C@@H]2CC(OC(=O)[C@H](CO)c3ccccc3)C[C@H]1[C@@H]1O[C@@H]12 (stereo partly drawn) [OXITROPIUM] | > 30 | > 30 | > 30 | > 30 | > 30 | > 30 |  |  |  |  | 
20 | CC(C)(C)NC[C@H](O)COc1ccccc1C1CCCC1 [PENBUTOLOL] | > 30 | > 30 | > 30 | 26.4 | > 30 | > 30 |  |  |  |  | 
21 | CN(C)S(=O)(=O)c1ccc2c(c1)N(CCCN1CCC(CCO)CC1)c1ccccc1S2 [PIPOTIAZINE] | > 30 | > 30 | > 30 | > 30 | 8.9 | > 30 |  |  |  |  | 
22 | COc1cc(NC(C)CCCN)c2ncccc2c1 (stereo not drawn) [PRIMAQUINE] |  | > 30 |  |  |  | > 30 | 20 |  |  |  | 
23 | C=C[C@H]1C[N@@]2CC[C@H]1C[C@H]2[C@H](O)c1ccnc2ccc(OC)cc12 [QUININE] | > 30 | > 30 | > 30 | > 30 | > 30 | > 30 |  |  |  |  | 
24 | CCC(=O)NCC[C@@H]1CCc2ccc3c(c21)CCO3 [RAMELTEON] | > 30 | > 30 | > 30 | > 30 | > 30 | > 30 |  |  |  |  | 
25 | CCCCCCOc1nsnc1C1=CCCN(C)C1 [XANOMELINE] | 17.2 | > 30 | > 30 | > 30 | 3.37 | > 30 |  |  |  |  | 

Reference: ChEMBL document CHEMBL5291721, “A preclinical secondary pharmacology resource illuminates target-adverse drug reaction associations of marketed drugs” (Nat Commun, 2023)
